The source of these data is PubChem BioAssay AID328 (DTP/NCI, 2004).

The experiment deals with BDF1 mice, P388 leukemia ip, median survival T/C. The experiment can be described thus: NCI In Vivo Anticancer Drug Screen. Data for tumor model P388 Leukemia (intraperitoneal) in B6D2F1 (BDF1) mice. As to conditions: endpoint: median survival time, higher = longer survival. The method, then:
The antitumor activity of compounds was measured in mice bearing transplantable tumors. Survival or tumor size were measured and the results are expressed as the measurement made in the treated group (T) divided by the measurement made in the vehicle treated control group (C). The tumor model used in this assay is P388 Leukemia (intraperitoneal) in B6D2F1 (BDF1) mice

Setting [1] is: dose: 200.0 mg/kg/injection, schedule: Q01DX009 (ip), vehicle: saline.
The mark [2] stands for this setting: dose: 400.0 mg/kg/injection, schedule: Q01DX009 (ip), vehicle: saline.
Setting [3] is: dose: 100.0 mg/kg/injection, schedule: Q04DX003 (ip), vehicle: Klucel (hydroxypropylcellulose) (HPC).
Setting [4] is: dose: 200.0 mg/kg/injection, schedule: Q04DX003 (ip), vehicle: Klucel (hydroxypropylcellulose) (HPC).
Where [5] appears, read: dose: 400.0 mg/kg/injection, schedule: Q04DX003 (ip), vehicle: Klucel (hydroxypropylcellulose) (HPC).
[6] abbreviates: dose: 100.0 mg/kg/injection, schedule: Q04DX003 (ip), vehicle: saline.
[7] abbreviates: dose: 200.0 mg/kg/injection, schedule: Q04DX003 (ip), vehicle: saline.
The mark [8] stands for this setting: dose: 400.0 mg/kg/injection, schedule: Q04DX003 (ip), vehicle: saline.
Setting [9] is: dose: 100.0 mg/kg/injection, schedule: Q01DX009 (ip), vehicle: Klucel (hydroxypropylcellulose) (HPC).
The mark [10] stands for this setting: dose: 200.0 mg/kg/injection, schedule: Q01DX009 (ip), vehicle: Klucel (hydroxypropylcellulose) (HPC).
The mark [11] stands for this setting: dose: 400.0 mg/kg/injection, schedule: Q01DX009 (ip), vehicle: Klucel (hydroxypropylcellulose) (HPC).
The mark [12] stands for this setting: dose: 50.0 mg/kg/injection, schedule: Q01DX009 (ip), vehicle: Klucel (hydroxypropylcellulose) (HPC).
Setting [13] is: dose: 100.0 mg/kg/injection, schedule: Q01DX009 (ip), vehicle: saline with Tween-80.
[14] abbreviates: dose: 200.0 mg/kg/injection, schedule: Q01DX009 (ip), vehicle: saline with Tween-80.
[15] abbreviates: dose: 100.0 mg/kg/injection, schedule: Q04DX003 (ip), vehicle: saline with Tween-80.
[16] abbreviates: dose: 200.0 mg/kg/injection, schedule: Q04DX003 (ip), vehicle: saline with Tween-80.
Setting [17] is: dose: 400.0 mg/kg/injection, schedule: Q04DX003 (ip), vehicle: saline with Tween-80.

Several values for one entry are separate records, joined by “and”; a condition that tells them apart may be missing. Equal values may be shown once. Inconclusive results and toxic doses are left out.

For `NC(N)=NO`, the T/C was 91 % of control (dose: 9.37 mg/kg/injection, schedule: Q01DX009 (ip), vehicle: saline); 90 % of control (dose: 9.38 mg/kg/injection, schedule: Q01DX009 (ip), vehicle: saline); 100 % of control and 103 % of control (dose: 18.75 mg/kg/injection, schedule: Q01DX009 (ip), vehicle: saline); 112 % of control and 115 % of control (dose: 37.5 mg/kg/injection, schedule: Q01DX009 (ip), vehicle: saline); 166 % of control and 168 % of control under setting [1]; 158 % of control and 163 % of control (dose: 300.0 mg/kg/injection, schedule: Q01DX009 (ip), vehicle: saline). Further, the T/C under setting [2] is 195 % of control and 198 % of control.
Turning to `CCCCCCCCC(O)CCCCC` (configuration not stated), the T/C was 108 % of control under setting [3], 87 % of control under setting [4] and 95 % of control under setting [5].
For the compound `CC1CCC2N(C1)CC1C(C(O)C(O)C3(O)C1CC14OC5(O)C(O)CCC1(C)C5CC(O)C34)C2(C)O` (configuration not stated), the T/C (dose: 25.0 mg/kg/injection, schedule: Q01DX010 (ip), vehicle: carboxymethylcellulose (CMC)) is 100 % of control; the T/C (dose: 50.0 mg/kg/injection, schedule: Q01DX010 (ip), vehicle: carboxymethylcellulose (CMC)) was 115 % of control; the T/C (dose: 100.0 mg/kg/injection, schedule: Q01DX010 (ip), vehicle: carboxymethylcellulose (CMC)) is 110 % of control.
For `OCC(O)C(O)C(O)CO` (configuration not stated), the T/C reads like this: (dose: 100.0 mg/kg/injection, schedule: Q01DX010 (ip), vehicle: saline) 100 % of control; (dose: 400.0 mg/kg/injection, schedule: Q01DX010 (ip), vehicle: saline) 100 % of control.
For the compound `CC(=O)NC(C)C(C)C` (configuration not stated), the T/C is 100 % of control under setting [6], 95 % of control under setting [7] and 100 % of control under setting [8].
In the case of `COc1cc(C(=O)CCC(=O)O)cc(OC)c1OC`, the T/C is 100 % of control under setting [9]; 100 % of control under setting [10]; 105 % of control under setting [4]; 95 % of control under setting [11]; 115 % of control under setting [5].
Take `CCCOP(=S)(N1CC1)N1CC1`: the T/C reads like this: (dose: 25.0 mg/kg/injection, schedule: Q01DX009 (ip), vehicle: other) 100 % of control; (dose: 50.0 mg/kg/injection, schedule: Q04DX003 (ip), vehicle: Klucel (hydroxypropylcellulose) (HPC)) 116 % of control; under setting [9], 100 % of control; (dose: 100.0 mg/kg/injection, schedule: Q01DX009 (ip), vehicle: other) 150 % of control; under setting [4], 183 % of control.
For the compound `NCCSC(c1ccccc1)c1ccccc1`, the T/C reads like this: under setting [12], 100 % of control; under setting [9], 105 % of control.
`COc1cc2cc(c1Cl)NC(=O)CC(OC(=O)C(C)N(C)C(C)=O)C1(C)OC1C(C)C1CC(O)(NC(=O)O1)C(OC)C=C/C=C(\C)C2` (configuration not stated): the T/C runs as follows: (dose: 0.1 micrograms/kg/injection, schedule: Q01DX009 (ip), vehicle: saline + alcohol) 120 % of control; (dose: 0.2 micrograms/kg/injection, schedule: Q01DX009 (ip), vehicle: saline + alcohol) 110 % of control; (dose: 0.4 micrograms/kg/injection, schedule: Q01DX009 (ip), vehicle: saline + alcohol) 115 % of control; (dose: 0.8 micrograms/kg/injection, schedule: Q01DX009 (ip), vehicle: saline + alcohol) 110 % of control; (dose: 6.2 micrograms/kg/injection, schedule: Q01DX009 (ip), vehicle: saline + alcohol) 170 % of control; (dose: 12.5 micrograms/kg/injection, schedule: Q01DX009 (ip), vehicle: saline + alcohol) 120 % of control. Also, the T/C was 185 % of control (dose: 25.0 micrograms/kg/injection, schedule: Q01DX009 (ip), vehicle: saline + alcohol) and 120 % of control (dose: 50.0 micrograms/kg/injection, schedule: Q01DX009 (ip), vehicle: saline + alcohol).
As to `CC(=O)N(/N=C/c1cc(C=O)n(-c2ccccc2)n1)c1ccccc1`, the T/C was 86 % of control (dose: 50.0 mg/kg/injection, schedule: Q01DX009 (ip), vehicle: saline with Tween-80); 90 % of control under setting [13]; 105 % of control under setting [14].
On to `O=c1ccc2cc(Cl)ccc2[nH]1`, for which the T/C is 105 % of control (dose: 50.0 mg/kg/injection, schedule: Q01DX001 (ip), vehicle: saline with Tween-80) and 103 % of control (dose: 100.0 mg/kg/injection, schedule: Q01DX001 (ip), vehicle: saline with Tween-80).
With `CCC(=O)NC1=C(N2CC2)C(=O)C(NC(=O)CC)=C(N2CC2)C1=O`, the T/C (dose: 1.0 mg/kg/injection, schedule: Q01DX009 (ip), vehicle: saline) was 171 % of control and 185 % of control; the T/C (dose: 2.0 mg/kg/injection, schedule: Q01DX009 (ip), vehicle: saline) was 225 % of control and 228 % of control; the T/C (dose: 4.0 mg/kg/injection, schedule: Q01DX009 (ip), vehicle: saline) is 90 % of control and 119 % of control.
For the compound `O=S1(=O)C=Cc2ccccc21`, the T/C is, setting by setting: under setting [12], 92 % of control; under setting [9], 100 % of control; under setting [3], 100 % of control; under setting [10], 107 % of control; under setting [4], 95 % of control.
Take `CC1=C(N2CCN(c3ccc(Cl)cc3)CC2)C(=O)CC(C)(C)C1`: the T/C under setting [9] is 110 % of control, the T/C under setting [10] is 105 % of control and the T/C under setting [11] is 100 % of control.
Take `CC(=O)OCc1cc2cc(O)ccc2nc1C`: the T/C was 98 % of control (dose: 25.0 mg/kg/injection, schedule: Q01DX009 (ip), vehicle: saline); 107 % of control (dose: 50.0 mg/kg/injection, schedule: Q01DX009 (ip), vehicle: saline); 111 % of control (dose: 50.0 mg/kg/injection, schedule: Q04DX003 (ip), vehicle: saline); 101 % of control (dose: 100.0 mg/kg/injection, schedule: Q01DX009 (ip), vehicle: saline); 110 % of control and 115 % of control under setting [6]; 116 % of control under setting [1]. Besides, the T/C was 92 % of control and 110 % of control under setting [7]; 91 % of control under setting [2]; 97 % of control and 104 % of control and 116 % of control under setting [8].
With `O=C(O)c1ccccc1C(=O)NNC(=O)c1ccccc1C(=O)O`, the T/C is, setting by setting: under setting [13], 100 % of control; under setting [15], 90 % of control; under setting [14], 95 % of control; under setting [16], 113 % of control; (dose: 400.0 mg/kg/injection, schedule: Q01DX009 (ip), vehicle: saline with Tween-80) 90 % of control; under setting [17], 109 % of control.
As to `Cc1nc(-c2ccc(N=Cc3ccc(N(CCOS(C)(=O)=O)CCOS(C)(=O)=O)cc3C)cc2)cs1`, the T/C was 247 % of control (dose: 11.0 mg/kg/injection, schedule: Q01DX009 (ip), vehicle: Klucel (hydroxypropylcellulose) (HPC)); 277 % of control and 176 % of control (dose: 16.5 mg/kg/injection, schedule: Q01DX009 (ip), vehicle: Klucel (hydroxypropylcellulose) (HPC)); 108 % of control (dose: 24.75 mg/kg/injection, schedule: Q01DX009 (ip), vehicle: Klucel (hydroxypropylcellulose) (HPC)); 111 % of control (dose: 25.0 mg/kg/injection, schedule: Q01DX009 (ip), vehicle: Klucel (hydroxypropylcellulose) (HPC)).
For the compound `Cc1ccsc1/C=N/NC(N)=S`, the T/C runs as follows: (dose: 50.0 mg/kg/injection, schedule: Q04DX003 (ip), vehicle: saline with Tween-80) 117 % of control; under setting [15], 117 % of control; under setting [16], 115 % of control; under setting [17], 92 % of control.
